{"source": "patent US6987093B2", "about": "(priority 2001, dated 2006)", "key": {"[1]": {"system": "Streptococcus pneumoniae 02J1016", "experiment": "Murine lung (pulmonary/pneumonia) infection model challenged with Streptococcus pneumoniae", "format": "in vivo, mouse"}, "[2]": {"system": "Streptococcus pneumoniae 02J1016", "experiment": "Murine peritonitis model, Streptococcus pneumoniae", "format": "in vivo, mouse", "conditions": "oral QD"}, "[3]": {"system": "Haemophilus influenzae 54A1100", "experiment": "Gerbil middle ear (otitis media) infection model, ED50, H. influenzae 54A1100", "format": "in vivo"}, "[4]": {"system": "Haemophilus influenzae 54A1218", "experiment": "Gerbil middle ear (otitis media) infection model, ED50, H. influenzae 54A1218", "format": "in vivo", "conditions": "for ED50: past studies"}, "H. influenzae 54A1100": {"system": "H. influenzae 54A1100", "experiment": "MIC determination, H. influenzae 54A1100", "format": "cell-based, Haemophilus influenzae", "conditions": "Haemophilus influenzae", "procedure": "MIC Determinations. Streptococcus pneumoniae, S. pyogenes, E. faecalis, and H. influenzae MICs were determined using the broth microdilution procedure recommended by the NCCLS. Test trays were incubated at 35C without carbon dioxide. For testing of streptococci, the cation-adjusted Mueller-Hinton broth was supplemented with 2–3% lysed horse blood. For testing H. influenzae, freshly prepared Haemophilus Test Medium broth was used.\nBacterial Strains. • S. pneumoniae 02J1016, serotype 3, originally isolated from blood culture (strain P 4241) (MLS- and penicillin-susceptible). • S. pyogenes 02C0203, ATCC 12384, group A, type 3 (MLS-susceptible). • E. faecalis 03A1085, vancomycin susceptible clinically derived strain. • H. influenzae 54A1100, (43095 ATCC Fulghum strain) non-serotype B strain originally isolated from otitis media (macrolide and penicillin susceptible). • H. influenzae 54A1218, clinically derived non-serotype B strain (macrolide-susceptible, penicillin-resistant, TEM-1 beta-lactamase)."}, "Mycoplasma pneumoniae": {"system": "Mycoplasma pneumoniae", "conditions": "single oral 10 mg/kg dose; only one of several macrolides tested; cited from earlier work"}, "Chlamydia trachomatis": {"system": "Chlamydia trachomatis", "conditions": "azithromycin (± an anti-inflammatory agent); cited from earlier work"}, "[5]": {"conditions": "oral QD, murine pneumonia model"}, "[6]": {"conditions": "oral QD, gerbil otitis media model"}}, "note": "Values joined by “and” are separate entries in the source; they are usually repeats but may differ in a detail not shown here. Equal entries are not always repeated. Where two headings read alike, the source gives them in different places.", "data": [{"smiles": "CC[C@H]1OC(=O)[C@H](C)[C@@H](O[C@H]2C[C@@](C)(OC)[C@@H](O)[C@H](C)O2)[C@H](C)[C@@H](O[C@@H]2O[C@H](C)C[C@H](N(C)C)[C@H]2O)[C@](C)(O)C[C@@H](C)CN(C)[C@H](C)[C@@H](O)[C@]1(C)O", "note": "[Azithromycin, 9a-aza-9a-methyl-9-deoxo-9a-homoerythromycin A]", "values": [{"measurement": "Oral PD50", "setting": "[1]; Dosing Regimen 1 day", "result": "20.4 (16.4–24.3) mg/kg/day"}, {"measurement": "Oral PD50", "setting": "[1]; Dosing Regimen 2 days", "result": "27.6 (22.8–32.4) mg/kg/day"}, {"measurement": "Oral PD50", "setting": "[1]; Dosing Regimen 3 days", "result": "49.4 (28.1–70.8) mg/kg/day"}, {"measurement": "Mice Surviving/Total", "setting": "[1]; mouse, in vivo", "result": "0/10 and 10/10 and 7/10 and 1/10 and 9/10 and 4/10"}, {"measurement": "ED50 One-Day Therapy", "setting": "[1]; [5]", "result": "20^1 mg/kg/therapy"}, {"measurement": "ED50 Three-Day Therapy", "setting": "[1]; [5]", "result": 49, "unit": "mg/kg/therapy"}, {"measurement": "ED50 Two-Day Therapy", "setting": "[1]; [5]", "result": 27, "unit": "mg/kg/therapy"}, {"measurement": "ED50 One-Day Therapy", "setting": "[2]", "result": "8.7^1 mg/kg/therapy"}, {"measurement": "ED50 Three-Day Therapy", "setting": "[2]", "result": 15.1, "unit": "mg/kg/therapy"}, {"measurement": "ED50 Two-Day Therapy", "setting": "[2]", "result": 7.6, "unit": "mg/kg/therapy"}, {"measurement": "ED50", "setting": "[3]; Dosing Regimen 1 day", "result": "138.1 (118.7–157.6) mg/kg/total"}, {"measurement": "ED50", "setting": "[3]; Dosing Regimen 2 days", "result": "138.1 (118.7–157.6) mg/kg/total"}, {"measurement": "ED50", "setting": "[3]; Dosing Regimen 3 days", "result": "162.9 (140–185.9) mg/kg/total"}, {"measurement": "ED50 One-Day Therapy", "setting": "[3]; [6]", "result": 138, "unit": "mg/kg/therapy"}, {"measurement": "ED50 Three-Day Therapy", "setting": "[3]; [6]", "result": 163, "unit": "mg/kg/therapy"}, {"measurement": "ED50 Two-Day Therapy", "setting": "[3]; [6]", "result": 138, "unit": "mg/kg/therapy"}, {"measurement": "ED50", "setting": "[3]; past studies, Q.D. 3", "result": 162.7, "unit": "mg/kg/total regimen"}, {"measurement": "ED50 One-Day Therapy", "setting": "[4]; [6]", "result": 84, "unit": "mg/kg/therapy"}, {"measurement": "ED50 Three-Day Therapy", "setting": "[4]; [6]", "result": 65, "unit": "mg/kg/therapy"}, {"measurement": "ED50 Two-Day Therapy", "setting": "[4]; [6]", "result": 53, "unit": "mg/kg/therapy"}, {"measurement": "ED50", "setting": "[4]; Q.D. 1", "result": "83.8 (53.6–114.1) mg/kg/total regimen"}, {"measurement": "ED50", "setting": "[4]; Q.D. 2", "result": "53.4 (21.2–85.5) mg/kg/total regimen"}, {"measurement": "ED50", "setting": "[4]; Q.D. 3", "result": "65.2 (51–79.4) mg/kg/total regimen"}, {"measurement": "MIC", "setting": "H. influenzae 54A1100; 54A1100, H. influenzae 54A1100", "result": 1.56, "unit": "µg/mL"}, {"measurement": "MIC", "setting": "H. influenzae 54A1100; H. influenzae 54A1100, read-out: MIC", "result": "0.5 to 1", "unit": "µg/mL"}, {"measurement": "efficacy", "setting": "Mycoplasma pneumoniae", "result": "efficacious"}, {"measurement": "preserving fertility", "setting": "Chlamydia trachomatis", "result": "superior to doxycycline and ofloxacin combinations"}]}]}
